Patent US10195270B2, “Peptide/β-1,3-glucan complex and production method thereof and pharmaceutical composition containing peptide/β-1,3-glucan complex” (Japan Science and Technology Agency, priority 2014, dated 2019)

What was measured:
spleen cells of mice [1] = assay: Antigenic peptide-specific IFN-γ production (ELISA) by OVA peptide-stimulated spleen cells of immunised mice (Examples 3 and 6); assay type: in vivo, mouse; conditions: Example 3, FIG. 4; C57BL/6 mice, intradermal once; spleen cells one week after administration, stimulated with OVA peptide 10 μg/mL, ELISA after 24 hours
Experimental: (1) One of the following was intradermally administered once to mice (C57BL/6 mouse, male, 7 weeks old): (1) antigenic peptide (OVA peptide, 5 μg) having an ovalbumin (OVA)-derived amino acid sequence (SEQ ID No. 1), (2) […] (5 μg) and CpG DNA (base sequence: […] (SEQ ID No. 2), 30 μg), (3) OVA peptide-dA40(S)/SPG complex (see Example 1, 5 μg), (4) OVA peptide-dA40(S)/SPG complex (prepared as in Example 1, 5 μg) and CpG DNA (30 μg), and (5) OVA peptide-dA40(S)/SPG complex (5 μg) and incomplete Freund's adjuvant (IFA). An investigation was performed to see whether antigen-specific interferon-γ (IFN-γ) was induced by, one week after administration, harvesting spleen cells from the mice, placing the cells in 96 wells (1.0×10^6 cells/well), and then stimulating the cells using OVA peptide (10 μg/mL).
Then 24 hours after stimulating the spleen cells by OVA peptide, enzyme-linked immunosorbent assay (ELISA) was used to quantitatively measure IFN-γ in the culture medium. […]
Then 24 hours after stimulating the spleen cells by OVA peptide, enzyme-linked immunosorbent assay (ELISA) was used to quantitatively measure IFN-γ in the culture medium.

spleen cells of mice [2] = assay: Fraction of OVA peptide-specific CD8-positive (cytolytic) T cells in spleen cells of immunised mice, flow cytometer (Examples 4 and 7); assay type: in vivo, mouse; conditions: Example 4, FIG. 5; spleen cells of Example 3 mice stimulated with OVA peptide-dA40(S)/SPG complex, cultured 6 days
Experimental: Mouse spleen cells were harvested from mice to which had been intradermally administered in Example 3 the (1) OVA peptide, (2) OVA peptide and CpG DNA, (3) OVA peptide-dA40(S)/SPG complex, or (4) OVA peptide-dA40(S)/SPG complex and CpG DNA. The harvested cells were stimulated using OVA peptide-dA40(S)/SPG complex and were cultured for 6 days. Then after antibody staining, a flow cytometer was used to evaluate the fraction of T cells that had cytotoxic specificity (CD8 positive) for OVA peptide.
The fraction of OVA peptide-specific CD8-positive T cells was low for the case (peptide) in which OVA peptide alone was administered, the case (peptide+CpG) in which OVA peptide and CpG DNA were simultaneously administered, and the case (peptide/SPG) in which OVA peptide-dA40(S)/SPG complex alone was administered.
The (1) OVA peptide, (2) OVA peptide and CpG DNA, (3) OVA peptide and CpG DNA-dA40(S)/SPG complex, or (4) OVA peptide-dA40(S)/CpG DNA-dA40(S)/SPG ternary complex prepared in Example 5 of Example 6 was intradermally administered, mouse spleen cells were harvested and stimulated using OVA peptide-dA40(S)/SPG complex, and the stimulated cells were cultured for 6 days. Then after antibody staining, a flow cytometer was used to evaluate the fraction of T cells that had cytotoxic specificity (CD8 positive) for OVA peptide.

Sequence: SIINFEKL (SEQ ID No. 1) (listed as Homo sapiens) [OVA peptide]
- OVA peptide-specific interferon (IFN-γ) reaction (spleen cells of mice [1]): No OVA peptide-specific interferon reaction was observed
- fraction of OVA peptide-specific CD8-positive T cells among the spleen cells (spleen cells of mice [2]): low
